According to a melting point compilation (Tetko et al.; mined from patent text by program, amines drawn as free bases though some values may be those of a salt):

Compound	melting point
CN(C)c1ccc(NC(=O)N(CC2CCC(CN(C(=O)Nc3ccc(N(C)C)cc3)C3C4CC5CC(C4)CC3C5)CC2)C2C3CC4CC(C3)CC2C4)cc1 (configuration not stated)	182 to 185 °C
COc1c(N2C[C@H]3[C@@H](F)CC[C@@]3(N)C2)c(F)cc2c(=O)c(C(=O)O)cn([C@@H]3C[C@@H]3F)c12	117 to 119 °C
Cc1cccc(-c2[nH]c(C(C)C)nc2-c2cccc(-c3ccc(S(C)(=O)=O)cc3)c2)n1	104 to 106 °C
CCOC(=O)N1CCC(Nc2nc3ncnc(Cl)c3n2Cc2ccc(F)cc2)CC1	127 °C
CCN(CC)CCN1C(=O)c2ccc(NC(C)=O)cc2Oc2cc(C(F)(F)F)ccc21	75 to 85 °C
Cc1cn(-c2ccc(NC(=O)c3ccc(Cl)c(C#Cc4ccc(NC5CCC5)nn4)c3)cc2C(F)(F)F)cn1	153 to 155 °C
COC(=O)CN1Cc2c([nH]c3ccccc23)C1=O	215 to 217 °C
CNC(=O)C(Cc1ccc(OC)cc1)NC(=O)C(C)(CC(C)C)c1cccc(C(F)(F)F)c1S (configuration not stated)	88 to 102 °C
CCCN(CCC(O)c1csc2ccc(F)cc12)C1COc2c(F)ccc(C(N)=O)c2C1 (configuration not stated)	117 °C
Cc1noc(C)c1S(=O)(=O)n1c(=O)sc2ccccc21	140 to 144 °C
CCOC(=O)c1c(C)nc(-c2ccccc2)nc1-c1ccc(OC(C)=O)c([N+](=O)[O-])c1	147 to 148 °C
CCCCCCCCCCCCS(=O)(=O)c1ccccc1[N+](=O)[O-]	47 to 48 °C
CC(C)Oc1c(C(=O)Nc2nnn[nH]2)[nH]c(Br)c1Br	194 to 196 °C
COC(=O)c1ccc(-c2coc3ccc(-c4nnc(C)o4)cc23)c(Cl)c1	171 to 172 °C
CC(F)C1C(=O)NC1CC(=O)OCc1ccccc1 (mixture of isomers)	40 to 43 °C
CC(C)N1CC(CN(C)C)N(C)c2ccccc2C1=O (configuration not stated)	93 to 95 °C
O=C(O)C(Cc1ccc(C(F)(F)F)cc1Br)C(=O)O	80 to 82 °C
CC(C)(C)NC(=O)c1cc(F)ccc1N	77 to 78 °C
COc1c(C(C)C)cc(S(N)(=O)=O)c(C)c1C(=O)NCC1CCCN1C1CCCC1 (configuration not stated)	196 °C
COc1ccc(-c2cc(=O)cc(C(N)=O)o2)cc1	303 to 308 °C
CS(=O)c1nnc(-c2ccc3occ(-c4ccc(OC(F)(F)F)cc4)c3c2)o1 (configuration not stated)	134 to 135 °C
c1cc(OCC2CO2)c2nsnc2c1 (configuration not stated)	65 to 67 °C
C#CCC(CC#C)NC(=O)C(F)(F)F	55 to 57 °C
CN1CCC(c2nc3ccccc3[nH]2)C1 (configuration not stated)	189 to 193 °C
CCOC(=O)c1cc(C(=O)c2cccc(S(=O)(=O)F)c2)sc1N=Nc1ccc(O)c(N)n1	170 to 172 °C

Compound	melting point
COC(=O)c1sc2c(c1N)-c1ccccc1CN2c1ccccc1	136 to 142 °C
CC1(C)CCC(C)(C)c2cc3c(cc21)C(C)(C)CCC3(C)C	218 to 221 °C
OC1(c2cccn2Cc2ccccc2F)CCN(CCCc2noc3cc(F)ccc23)CC1	100 to 104 °C
OCc1ccc2c(c1)ncn2-c1cccc(-c2ccccc2)c1	130 to 131 °C
OC1CCCCC1Oc1cccc(COc2cccc3cccnc23)c1 (configuration not stated)	109 to 110 °C
Fc1cc(F)c2oc(CCC#Cc3ccccn3)nc2c1	93.5 to 94 °C
O=C1Nc2ccc(F)cc2C1c1ncnc2c1cnn2C1CCCCC1 (configuration not stated)	282 to 286 °C
COC(C)c1cc(N2C(=O)C3=C(CCCC3)C2=O)c(F)cc1Cl (configuration not stated)	141 to 144 °C
CCCCC(NC(=O)C(CC(C)C)NC(=O)c1ccc2ccccc2c1)C(=O)CSCc1ccco1 (configuration not stated)	97 to 99 °C
Oc1ccc(OCCN2CCN(c3ccccc3)CC2)cc1	95 to 100 °C
Cc1nc(N)c2nc(C)n(CCOCCNC(=O)N3CCOCC3)c2c1C	205 to 207 °C
CC(=O)N1C(C)(C)CC(O)CC1(C)C	102 to 104 °C
CC(=O)Nc1ccc(-c2cccc(C3=NCC(C)(C)c4ccc5c(c43)CC(C)(C)O5)c2)cc1	246 to 249 °C
c1ccc(C(c2ccccc2)(c2cncnc2)n2ccnc2)cc1	161 °C
N=C(NC(=O)c1ccccc1)N1CCc2[nH]cnc2C1	228 °C
O=C(O)CN(C(=O)OCc1ccccc1)C1CCCC1	110 °C
Cc1nc(NC(=O)c2cc(Cl)cc(Cl)c2)sc1C(=O)NCc1ccccc1	104 to 105 °C
CC=CC(=O)CS(=O)(=O)C(c1ccc(Cl)cc1)c1ccc(Cl)cc1	114 to 116 °C
COc1ncc(-c2cc(C=CC(=O)c3ccc(C(=O)O)cc3)c(OC)cc2OC)c(OC)n1	203 to 205 °C
CC(=C1SC(=O)NC1=O)c1ccc(OCCOc2c(-c3ccc(F)c(F)c3)n(C)c3ccccc3c2=O)cc1	248 to 250 °C
CCc1nc2c(cnn2CC)c(NC2CCOCC2)c1CNC(=O)c1cccc(C(=O)NCc2ccc(Cl)c(-c3cccc(C=O)c3)c2)c1	131 to 134 °C
CC(F)(F)c1ccc(Oc2ccc(C3CCCN4CCS(=O)(=O)N=C34)cc2)cc1 (configuration not stated)	171 to 172 °C
O=C(Cc1ccc(Br)cc1)c1ccc(Cl)cc1	123 °C
CN(C(=O)c1ccc([N+](=O)[O-])cc1)C1N(C)C(c2ccc(F)cc2)=NC1(C(F)(F)F)C(F)(F)F (configuration not stated)	174 to 175 °C
CCOC(=O)N1CCc2nc3ccccc3c(N3CCCC3)c2CC1	111 °C

Compound	melting point
Cc1cc(Oc2ncc(Cl)cc2Cl)n[nH]1	109 to 111 °C
Cc1nc(N2CCc3ccccc3CC2)c(C#N)c(=O)n1O	168 to 172 °C
CCOC(=O)C(=O)Nc1cccc(F)c1O	168 °C
CCCCc1ncc(C(=O)O)s1	97 °C
CC12CCC3=C(CCC(CCCC#N)O3)C1=CCC2=O (configuration not stated)	100 °C
CCCc1nn(C)c2c(=O)[nH]c(-c3sc(S(=O)(=O)N4CCN(C)CC4)cc3OCC)nc12	219 to 220 °C
CCOC(=O)c1cnc2c(C)cc(-c3ccc(C(F)(F)F)cc3)cn12	128 °C
CN1C(=O)CC[C@]2(C)c3ccc(-c4ccc(F)cc4F)cc3CC[C@@H]12	108 to 112 °C
O=c1[nH]c2ccc(CCN3CCN(c4ncnc5ccccc45)CC3)cc2o1	200 °C
N#Cc1cnc2cc(O)ccc2c1Nc1ccc2cn[nH]c2c1	> 250 °C
CCC(=CC(CNC(=O)c1cccnc1Cl)=NO)C(C)[N+](=O)[O-] (configuration not stated)	131 to 136 °C
CCn1nc2c(N)nc3cc(OS(=O)(=O)C(F)(F)F)ccc3c2c1CCc1ccccc1	178 to 179 °C
COc1cc(C(F)(F)F)sc1C(=O)O	131 to 132 °C
CC(=O)NC1C2CC(=O)CC1C(N)=C(O)C2=O (configuration not stated)	> 280 °C
CC(=O)Nc1cc(N2CCCCC2)nc(=N)n1O	204 to 205 °C
COc1ccc(C2(C#N)CCC(=O)CC2)c2c1OCCO2	157 to 161 °C
COC(=O)c1cccc(C2C(C#N)=C(N)Oc3c2ccc2cnccc32)c1 (configuration not stated)	229 to 230 °C
O=C(CCCl)Nc1ccc2c(c1)C(=O)c1cc(NC(=O)CCCl)ccc1C2=O	281 °C
O=C(c1cc(C(F)(F)F)cc(C(F)(F)F)c1)N1CCC2(CC1)C(=O)NCN2c1cccc(Cl)c1	235 to 236 °C
CCc1ccc2oc(C(=O)Nc3ccc(-c4ccc(S(=O)(=O)NC(C(=O)O)C(C)C)cc4)cc3)c(C)c2c1OC (configuration not stated)	225 to 228 °C
COc1ccc2[nH]cc(/C(C#N)=C/c3ccc(Cl)nc3)c2c1	184 °C
CNC(=O)c1cccc(NC(=O)CCc2ccccc2)c1	142 to 143 °C
CC(CCC(N)=S)N1C(=O)c2ccccc2C1=O (configuration not stated)	143 to 146 °C
O=C(O)Cc1cc2c([N+](=O)[O-])c(O)c(O)cc2oc1=O	> 350 °C
CC(C)(C)O[C@@H]1C[C@@H](CO)N(S(=O)(=O)c2ccc3ccccc3c2)C1	124 to 125 °C

Compound	melting point
CC(C)c1cc2c(c(C(C)C)c1)Oc1ccc(C(N)=O)cc1N(CCN(C)C)C2=O	223 to 225 °C
NC(=O)N1C(=O)C(C(=O)c2cccs2)c2cc(F)c(Cl)cc21 (configuration not stated)	220 to 221 °C
CCOC(=O)c1[nH]cc(C)c(=O)c1C	124 to 126 °C
Cc1cccc(C)c1N1C(=N)C(C)N(c2c(C)cccc2C)C1C(=O)OCc1ccc(Cl)cc1 (configuration not stated)	140 to 142 °C
O=C(Nc1c[nH]nc1C(=O)NCCC(F)(F)F)c1ccccn1	241 to 243 °C
COc1cc(-c2nc(N(C)CCN)c3c(C)c(C#N)sc3n2)cc(OC)c1OC	> 290 °C
O=C1CCC(N2C(=O)c3ccc(CNC(=O)c4ccco4)cc3C2=O)C(=O)N1 (configuration not stated)	180 to 182 °C
COc1ccc(-c2[nH]c3cn[nH]c(=O)c3c2Cl)cc1OC(C)C	291 to 299 °C
Cc1nc2ccc3ccc(CNc4ccc(C(=O)O)c(F)c4)cc3c2c(=O)[nH]1	> 250 °C
O=C(O)CC/C=C/CC(NC(=O)c1ccccc1)C(=O)O (configuration not stated)	138 °C
C=C1CCn2c(CCc3ccccc3)nc3cccc1c32	81 to 82.2 °C
COc1ccc(C(=O)Nc2c(Cl)cncc2Cl)cc1OC1CCCC1	153 to 155 °C
Cc1c(C2CCN(Cc3ccccc3)CC2)n[nH]c1-c1ccc(Cl)cc1	188 to 190 °C
O=C(O)Cn1cc2c(=O)n3c(nc2n1)SCC3	276 °C
Cc1cc(=S)c2c(O)cc(OC(C)C)cc2o1	119 to 120 °C
COc1ccccc1CNc1ccc2cc(Nc3cc(C)on3)ccc2n1	132 °C
Cc1ccc(C(=O)Nc2cc(-c3cccnc3)cc(C(F)(F)F)c2)cc1Nc1nccc(-c2cccnc2)n1	275 to 279 °C
Cc1c(-c2ccccc2Cl)n(-c2ccccc2Cl)c(-c2ccccc2Cl)cc1=O	205 to 207 °C
Cc1[nH]cnc1-c1cc(C(C)(C)C)c(O)c(C(C)(C)C)c1	207 to 209 °C
CN1CCC(=O)C(C2c3ccccc3CCc3ccccc32)C1 (configuration not stated)	146 to 147 °C
CCC(=O)c1ccc2c(c1)C(C(Cl)(Cl)Cl)OC(C(Cl)(Cl)Cl)O2 (configuration not stated)	96 to 97 °C
O=C1c2ccccc2C(=O)N1Cc1noc(-c2ncn3c2[C@@H]2CCN2C(=O)c2c-3cccc2C(F)(F)F)n1	243 to 245 °C
